The text below walks through data of patent US7262340B2, “Gibberellin 2-oxidase” (Rothamsted Research Limited, priority 1998, dated 2007).

One assay has as its target T1, PcGA2ox1 (Phaseolus coccineus, UniProt Q9XG83).
T1 construct: unnamed vector-encoded fusion partner (phagemid expression); made in house; host or cells: E. coli (crude cell lysate)
T1 sequence (Q9XG83 1-331): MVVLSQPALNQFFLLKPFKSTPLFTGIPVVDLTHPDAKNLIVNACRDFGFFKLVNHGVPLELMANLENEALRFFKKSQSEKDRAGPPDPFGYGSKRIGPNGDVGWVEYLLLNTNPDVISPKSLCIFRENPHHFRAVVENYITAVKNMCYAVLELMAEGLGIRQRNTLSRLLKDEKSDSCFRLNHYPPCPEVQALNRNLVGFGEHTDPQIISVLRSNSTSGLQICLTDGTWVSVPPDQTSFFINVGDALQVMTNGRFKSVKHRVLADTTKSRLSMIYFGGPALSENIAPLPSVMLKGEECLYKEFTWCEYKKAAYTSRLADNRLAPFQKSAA
In words: Incubation of recombinant GA 2-oxidase PcGA2ox1 (E. coli lysate) with 14C-labelled GA substrates. As to conditions: for conversion of C20-GA substrate: 14C-labelled substrate, dioxygenase cofactors; for 2β-Hydroxy GA product / GA-catabolite Product: E. coli cell lysate, 14C-labelled GA substrate and cofactors, 2.5 h, HPLC-radiomonitoring. The format is biochemical. Here is the method:
(§1) GA 2β-hydroxylase activity was determined by measuring the release of 3H2O from a 2β tritiated GA substrate, as described by Smith and MacMillan (Smith, V. A., and MacMillan, J. in J. Plant Growth Regulation 2 251-264 (1984)). The bacterial lysate (90 μl) was incubated with [1,2-^3H2]GA4 or [2,3-^3H2]GA9 (ca. 50000 dpm), in the presence of 4 mM 2-oxoglutarate, 0.5 mM Fe(II)SO4, 4 MM ascorbate, 4 mM DTT, 1 mg/ml catalase, 2 mg/ml BSA, in a final reaction volume of 100 μl. The mixture was incubated at 30° C. for 60 min. The tritiated GAs were removed by the addition of 1 ml of activated charcoal (5% w/v) and subsequent centrifugation for 5 min in a microfuge. Aliquots (0.5 ml) of the supernatant were mixed with 2 ml scintillation fluid and the radioactivity determined by scintillation counting.
(§2) In order to confirm the function of the cDNA expression products, bacterial lysate was incubated with [17-^14C]GAs in the presence of cofactors, as described above. After the incubation, acetic acid (10 μl) and water at pH 3 (140 μl) were added, and the mixture was centrifuged at 3,000 rpm for 10 min. The supernatant was analysed by HPLC with on-line radiomonitoring and products identified by GC-MS, as described previously (MacMillan et al Plant Physiol. 113 1369-1377 (1997)).
(§3) The catalytic properties of the recombinant proteins obtained by expressing the cDNAs from P. coccineus (PcGA2ox1) and A. thaliana (AtGA2ox1, AtGA2ox2 and AtGa2ox3) in E. coli were examined by incubating in the presence of dioxygenase cofactors with a range of ^14C-labelled GA substrates, consisting of the C19-GAs GA1, GA4, GA9 and GA20, and the C20-GAs, GA12 and GA15. This last compound was incubated in both its closed and open lactone forms. […] The mass spectnum of the product from GA15 is consistent with it being 2β-hydroxyGA15, although, because the authentic compound is not available for comparison, the identity of this product is tentative.
(§4) Values are % yield by HPLC-radiomonitoring of products after incubation of cell lysates from E. coli expressing the cDNA with ^14C-labelled GA substrate and cofactors for 2.5 h. Products and substrate were separated by HPLC and products identified by GC-MS. Where combined yield of products <100%, the remainder is unconverted substrate.

Another assay addresses T2, AtGA2ox2 (Arabidopsis thaliana, UniProt Q9XFR9).
T2 construct: made in house; host or cells: E. coli (crude cell lysate)
T2 sequence (Q9XFR9 1-341): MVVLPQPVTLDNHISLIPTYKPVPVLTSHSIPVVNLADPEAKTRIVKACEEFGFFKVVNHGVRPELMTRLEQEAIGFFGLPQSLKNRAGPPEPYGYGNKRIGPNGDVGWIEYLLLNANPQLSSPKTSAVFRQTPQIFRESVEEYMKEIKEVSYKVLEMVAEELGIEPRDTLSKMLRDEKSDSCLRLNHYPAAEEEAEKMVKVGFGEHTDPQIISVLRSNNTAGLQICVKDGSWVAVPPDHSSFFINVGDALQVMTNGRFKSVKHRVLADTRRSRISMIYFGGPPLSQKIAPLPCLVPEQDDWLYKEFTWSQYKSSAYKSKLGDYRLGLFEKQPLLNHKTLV
In words: Incubation of recombinant GA 2-oxidase AtGA2ox2 (E. coli lysate) with 14C-labelled GA substrates. The assay is classed as biochemical. As to conditions: for conversion of C20-GA substrate: 14C-labelled substrate, dioxygenase cofactors; for 2β-Hydroxy GA product / GA-catabolite Product: E. coli cell lysate, 14C-labelled GA substrate and cofactors, 2.5 h, HPLC-radiomonitoring. Here is the method: as §1, §2, §3, §4

The next assay concerns GA 2-oxidases. In words: Substrate test with recombinant enzyme (GA 2-oxidases, enzyme not specified). The assay is classed as biochemical.
Assay [1] has as its system severely dwarfed 35S-PcGA2ox1 line. Briefly: Metabolism of C19-GAs in a severely dwarfed 35S-PcGA2ox1 line compared with wild-type plants (HPLC). The assay is classed as in vivo, Arabidopsis. The note with it: severely dwarfed line versus wild-type, on the basis of HPLC. The source says: Metabolism of C19-Gas was compared in a severely dwarfed […] line with that in wild-type plants. […] Therefore, this GA can be used, when required, to reverse the GA-deficiency resulting from overexpressing GA 2-oxidase genes.

Assay [2] deals with 35S-PcGA2ox1 transgenic Arabidopsis lines. Briefly: GA3 treatment of Arabidopsis transformants overexpressing P. coccineus GA 2-oxidase. The assay is classed as in vivo. Here is the method:
The transformation of Arabidopsis plants with P. coccineus GA 2-oxidase cDNA under the control of the CaMV ^35S promoter yielded the following results.
Five Arabidopsis lines that are homozygous for the 35S-PcGA2ox1 transgene were obtained. […] No flower buds were obtained when plants were grown in short photoperiods.

Assay [3] has as its system T3 and T24 (AtGA2ox1 and AtGA2ox2) transcript. Briefly: Northern blot of GA 2-oxidase genes T3 and T24 after GA3 treatment of GA-deficient mutant. The assay is classed as in vivo, Arabidopsis. As to conditions: immature flower buds and pedicels of GA-deficient mutant gal-2, after treatment.
In another assay the target is T3, AtGA2ox1 (Arabidopsis thaliana, UniProt Q8LEA2).
T3 construct: made in house; host or cells: E. coli (crude cell lysate)
T3 sequence (Q8LEA2 1-329): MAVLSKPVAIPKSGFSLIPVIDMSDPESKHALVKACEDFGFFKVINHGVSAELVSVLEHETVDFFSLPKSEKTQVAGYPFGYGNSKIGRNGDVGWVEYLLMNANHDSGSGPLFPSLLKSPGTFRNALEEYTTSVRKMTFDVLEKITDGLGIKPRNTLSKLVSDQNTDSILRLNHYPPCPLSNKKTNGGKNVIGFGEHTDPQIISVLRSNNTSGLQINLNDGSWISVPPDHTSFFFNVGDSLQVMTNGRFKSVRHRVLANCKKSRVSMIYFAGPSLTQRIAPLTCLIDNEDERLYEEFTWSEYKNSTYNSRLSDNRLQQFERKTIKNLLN
Briefly: Incubation of recombinant GA 2-oxidase AtGA2ox1 (E. coli lysate) with 14C-labelled GA substrates. The assay is classed as biochemical. The note with it: for 2β-Hydroxy GA product: E. coli cell lysate, 14C-labelled GA substrate and cofactors, 2.5 h, HPLC-radiomonitoring. Here is the method:
as §1, §2, §3, §4

A further assay has as its target T4, AtGA2ox3 (Arabidopsis thaliana, UniProt O64692).
T4 construct: made in house; host or cells: E. coli (crude cell lysate)
T4 sequence (O64692 1-335): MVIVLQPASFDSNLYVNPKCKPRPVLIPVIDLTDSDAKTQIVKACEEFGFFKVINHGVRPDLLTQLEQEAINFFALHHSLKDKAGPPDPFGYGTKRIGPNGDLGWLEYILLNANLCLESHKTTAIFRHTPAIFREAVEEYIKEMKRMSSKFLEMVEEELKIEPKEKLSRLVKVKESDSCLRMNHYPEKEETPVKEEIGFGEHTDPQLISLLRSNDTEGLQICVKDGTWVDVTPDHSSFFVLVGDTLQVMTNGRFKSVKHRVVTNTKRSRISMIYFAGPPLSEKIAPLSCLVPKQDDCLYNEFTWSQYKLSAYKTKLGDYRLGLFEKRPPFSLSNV
In words: Incubation of recombinant GA 2-oxidase AtGA2ox3 (E. coli lysate) with 14C-labelled GA substrates. As to conditions: for 2β-Hydroxy GA product / GA-catabolite Product: E. coli cell lysate, 14C-labelled GA substrate and cofactors, 2.5 h, HPLC-radiomonitoring. The assay is classed as biochemical. Here is the method: as §1, §2, §3, §4

In assay [4] the test system is 2-oxoglutarate-dependent dioxygenases. As to conditions: pea seeds; cited from earlier work.
[5] abbreviates: 14C-labelled substrate, dioxygenase cofactors.

As to `C=C1C[C@]23C[C@H]1CC[C@H]2[C@]1(CO)CCC[C@@](C)(C(=O)O)[C@H]1[C@@H]3C(=O)O` [GA15 open lactone, 20-hydroxyGA12], the “conversion of C20-GA substrate” value on PcGA2ox1 is “no conversion”; on AtGA2ox2, “converted to the same product by AtGAox2, but less efficiently than was the lactone form”.

As for `C=C1C[C@]23C[C@H]1CC[C@H]2[C@@]12CCC[C@@](C)(C(=O)OC1)[C@H]2[C@@H]3C(=O)O` [GA15], the “conversion of C20-GA substrate” value at PcGA2ox1 and at AtGA2ox2 was “converted to a single product” throughout.

As for `C=C1C[C@]23C[C@@]1(O)CC[C@H]2[C@@]12C=C[C@H](O)[C@@](C)(C(=O)O1)[C@H]2[C@@H]3C(=O)O` [GA3], in the assay with GA 2-oxidases, the “substrate for the GA 2-oxidases” value is listed as “not a substrate”. In assay [1], the “conversion to 2-oxidised products / metabolism by the dwarf line” value was “did not metabolise”. In assay [2] (10 μM GA3, homozygous 35S-PcGA2ox1 lines), the “effect on bolting and flowering of the transgenic lines” value was “enabled them to bolt and produce normal flowers that set viable seed”. Also, the “response of dwarf transformants to treatment” value in [2] (Arabidopsis transformants, CaMV 35S promoter, concentration not given) was “increased stem elongation and normal flower development”. For the same molecule, in [3], the “transcript abundance for both T3 and T24” value was “increased”.

With `C=C1C[C@]23C[C@@]1(O)CC[C@H]2[C@@]12CCC[C@@](C)(C(=O)O1)[C@H]2[C@@H]3C(=O)O` [GA20], the “2β-Hydroxy GA product” value on PcGA2ox1 is recorded as 86 % yield; at AtGA2ox1, 50 % yield; on AtGA2ox2 it was 100 % yield; on AtGA2ox3 it was 25 % yield. Further, in assay [1], the “conversion to 2-oxidised products / metabolism by the dwarf line” value is listed as “to a much greater extent than did the wild-type”.

In the case of `C=C1C[C@]23C[C@@]1(O)CC[C@H]2[C@@]12CC[C@H](O)[C@@](C)(C(=O)O1)[C@H]2[C@@H]3C(=O)O` [GA1], the “2β-Hydroxy GA product” value on PcGA2ox1 is listed as 100 % yield; on AtGA2ox1, 41 % yield; at AtGA2ox2, 100 % yield; at AtGA2ox3 it was 100 % yield. The “GA-catabolite Product” value at AtGA2ox3 is reported as “Trace”. The “conversion to 2-oxidised products / metabolism by the dwarf line” value in assay [1] was “to a much greater extent than did the wild-type”.

As to prohexadione-calcium, the “conversion of GA29 to GA29-catabolite” value in assay [4] was “inhibited”.

With `C=C1C[C@]23C[C@H]1CC[C@H]2[C@]1(C)CCC[C@@](C)(C(=O)O)[C@H]1[C@@H]3C(=O)O` [GA12], the “conversion of C20-GA substrate” value at PcGA2ox1, on AtGA2ox1 (setting [5]), at AtGA2ox2 and on AtGA2ox3 (setting [5]) was “No conversion” in each case.

As to `C=C1C[C@]23C[C@H]1CC[C@H]2[C@@]12CC[C@H](O)[C@@](C)(C(=O)O1)[C@H]2[C@@H]3C(=O)O` [GA4], the “2β-Hydroxy GA product” value came out at 83 % yield at PcGA2ox1, 25 % yield at AtGA2ox1, 77 % yield on AtGA2ox2 and 86 % yield at AtGA2ox3. The “GA-catabolite Product” value was 17 % yield on PcGA2ox1, 23 % yield on AtGA2ox2 and 14 % yield at AtGA2ox3. Moreover, the “conversion to 2-oxidised products / metabolism by the dwarf line” value in assay [1] was “to a much greater extent than did the wild-type”.

For the molecule `C=C1C[C@]23C[C@H]1CC[C@H]2[C@@]12CCC[C@@](C)(C(=O)O1)[C@H]2[C@@H]3C(=O)O` [GA9], the “2β-Hydroxy GA product” value at PcGA2ox1 is reported as 87 % yield; at AtGA2ox1, 91 % yield; on AtGA2ox3, 100 % yield. Besides, the “GA-catabolite Product” value at PcGA2ox1 is on record as 13 % yield; on AtGA2ox2 it was 100 % yield. The “activity for 2β-hydroxylation of GA9, dependence on pH” value at PcGA2ox1 (between pH 6.5 and 8) was “varied little”; on AtGA2ox2 (between pH 6.5 and 8), “varied little”; on AtGA2ox3 (between pH 6.5 and 8) it was “varied little”. Moreover, the “pH at which activity for 2β-hydroxylation of GA9 peaked” value at AtGA2ox1 turned out to be 7. Also, the “activity for 2β-hydroxylation of GA9” value at AtGA2ox1 (pH ≦5.9 and ≧8.1) is reported as “no detectable activity”. Besides, the “conversion to 2-oxidised products / metabolism by the dwarf line” value in assay [1] is “to a much greater extent than did the wild-type”.
